Measurements published in patent US9302999B2, “Substituted triazoles as herbicides” (E. I. DU PONT DE NEMOURS AND COMPANY, priority 2012, dated 2016).

Assays:
Type in all cases: in vivo
[1] = tested on: crabgrass, large (large crabgrass, Digitaria sanguinalis); assay: Test A pre-/postemergence: crabgrass, large; details: for Crabgrass, Large plant response rating: Postemergence; for Plant response rating, Crabgrass, Large: Preemergence
Outline: (§1)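 Visual 0–100 injury ratings (0 no effect, 100 complete control) taken about ten days after treatment, relative to untreated controls. Preemergence treatment was a directed soil spray; postemergence plants were 2–10 cm tall at one- to two-leaf stage. Soil: loam/sand blend.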

rice (Oryza sativa) = assay: Test B flooded paddy: rice; details: Flood; 250 g ai/ha; applied to paddy water at 2-leaf stage; visually evaluated after 13 to 15 days
Protocol: (§2) Seeds selected from rice (Oryza sativa), sedge, umbrella (small-flower umbrella sedge Cyperus difformis), ducksalad (Heteranthera limosa), and barnyardgrass (Echinochloa crus-galli) were grown to the 2-leaf stage for testing. At time of treatment, test pots were flooded to 3 cm above the soil surface, treated by application of test compounds directly to the paddy water, and then maintained at that water depth for the duration of the test.
(§3) Treated plants and controls were maintained in a greenhouse for 13 to 15 days, after which time all species were compared to controls and visually evaluated. Plant response ratings, summarized in Table B, are based on a scale of 0 to 100 where 0 is no effect and 100 is complete control. A dash (-) response means no test result.

[2] = tested on: wheat (Triticum aestivum); assay: Test A pre-/postemergence: wheat; details: for Wheat plant response rating: Postemergence; for Plant response rating, Wheat: Preemergence
Outline: as §1

corn (Zea mays) = assay: Test A pre-/postemergence: corn; details: for Corn plant response rating: Postemergence; for Plant response rating, Corn: Preemergence
Outline: as §1

[3] = tested on: velvetleaf (Abutilon theophrasti); assay: Test A pre-/postemergence: velvetleaf; details: for Velvetleaf plant response rating: Postemergence; for Plant response rating, Velvetleaf: Preemergence
Outline: as §1

[4] = tested on: pigweed (Amaranthus retroflexus); assay: Test A pre-/postemergence: pigweed; details: for Pigweed plant response rating: Postemergence; for Plant response rating, Pigweed: Preemergence
Outline: as §1

[5] = tested on: foxtail, giant (giant foxtail, Setaria faberii); assay: Test A pre-/postemergence: foxtail, giant; details: for Foxtail, Giant plant response rating: Postemergence; for Plant response rating, Foxtail, Giant: Preemergence
Outline: as §1

[6] = tested on: barnyardgrass (Echinochloa crus-galli); assay: Test A pre-/postemergence: barnyardgrass; details: for Barnyardgrass plant response rating: Postemergence; for Plant response rating, Barnyardgrass: Preemergence
Outline: as §1

[7] = tested on: morningglory (Ipomoea spp.); assay: Test A pre-/postemergence: morningglory; details: for Morningglory plant response rating: Postemergence; for Plant response rating, Morningglory: Preemergence
Outline: as §1

[8] = tested on: ducksalad (Heteranthera limosa); assay: Test B flooded paddy: ducksalad; details: Flood; 250 g ai/ha; applied to paddy water at 2-leaf stage; visually evaluated after 13 to 15 days
Protocol: as §2, §3

[9] = tested on: sedge, umbrella (small-flower umbrella sedge Cyperus difformis); assay: Test B flooded paddy: sedge, umbrella; details: Flood; 250 g ai/ha; applied to paddy water at 2-leaf stage; visually evaluated after 13 to 15 days
Protocol: as §2, §3

[10] = tested on: barnyardgrass (Echinochloa crus-galli); assay: Test B flooded paddy: barnyardgrass; details: Flood; 250 g ai/ha; applied to paddy water at 2-leaf stage; visually evaluated after 13 to 15 days
Protocol: as §2, §3

[11] = 125 g ai/ha, 0 to 100 scale, 0 is no effect, 100 is complete control
[12] = 500 g ai/ha, visual rating on 0 to 100 scale (0 no effect, 100 complete control), approximately ten days
[13] = 125 g ai/ha, 0 to 100 scale (0 no effect, 100 complete control)
[14] = 500 g ai/ha, 0 to 100 scale, 0 is no effect, 100 is complete control
[15] = 31 g ai/ha, visual rating on 0 to 100 scale (0 no effect, 100 complete control), approximately ten days
[16] = 31 g ai/ha, 0 to 100 scale, 0 is no effect, 100 is complete control

SMILES | Crabgrass, Large plant response rating [1, 11] | Plant response rating, Crabgrass, Large [1, 13] | Plant response rating, Rice (0 to 100 scale, 0 is no effect, 100 is complete control) (rice (Oryza sativa)) | Wheat plant response rating [2, 11] | Plant response rating, Wheat [2, 13] | Corn plant response rating (corn (Zea mays); [11]) | Plant response rating, Corn (corn (Zea mays); [13]) | Velvetleaf plant response rating [3, 11] | Plant response rating, Velvetleaf [3, 13] | Pigweed plant response rating [4, 11] | Plant response rating, Pigweed [4, 13] | Foxtail, Giant plant response rating [5, 11] | Plant response rating, Foxtail, Giant [5, 13] | Barnyardgrass plant response rating [6, 11] | Plant response rating, Barnyardgrass [6, 13] | Morningglory plant response rating [7, 11] | Plant response rating, Morningglory [7, 13] | Plant response rating, Ducksalad (0 to 100 scale, 0 is no effect, 100 is complete control) [8] | Plant response rating, Sedge, Umbrella (0 to 100 scale, 0 is no effect, 100 is complete control) [9] | Plant response rating, Barnyardgrass (0 to 100 scale, 0 is no effect, 100 is complete control) [10] | other results
Cc1nn(-c2ccnc(F)c2)nc1C(=O)c1cccc(C(F)(F)F)c1 [Compound 3] | 40 | 90 | 0 | 30 | 0 | 20 | 0 | 50 | 0 | 90 | 70 | 30 | 90 | 30 | 10 | 30 | 0 | 0 | 0 | 0 | Crabgrass, Large plant response rating [1, 12]: 90; Plant response rating, Crabgrass, Large [1, 14]: 100; Wheat plant response rating [2, 12]: 40; Plant response rating, Wheat [2, 14]: 40; Corn plant response rating (corn (Zea mays); [12]): 30; Plant response rating, Corn (corn (Zea mays); [14]): 10; Velvetleaf plant response rating [3, 12]: 60; Plant response rating, Velvetleaf [3, 14]: 10; Pigweed plant response rating [4, 12]: 100; Plant response rating, Pigweed [4, 14]: 100; Foxtail, Giant plant response rating [5, 12]: 90; Plant response rating, Foxtail, Giant [5, 14]: 100; Barnyardgrass plant response rating [6, 12]: 50; Plant response rating, Barnyardgrass [6, 14]: 50; Morningglory plant response rating [7, 12]: 100; Plant response rating, Morningglory [7, 14]: 50
Cc1nn(-c2ccnc(Cl)c2)nc1C(=O)c1cccc(C(F)(F)F)c1 [Compound 4] | 30 | 80 | 0 | 20 | 0 | 20 | 0 | 30 | 0 | 80 | 50 | 20 | 80 | 20 | 10 | 20 | 0 | 40 | 70 | 20 | Crabgrass, Large plant response rating [1, 12]: 70; Plant response rating, Crabgrass, Large [1, 14]: 90; Wheat plant response rating [2, 12]: 40; Plant response rating, Wheat [2, 14]: 30; Corn plant response rating (corn (Zea mays); [12]): 30; Plant response rating, Corn (corn (Zea mays); [14]): 0; Velvetleaf plant response rating [3, 12]: 30; Plant response rating, Velvetleaf [3, 14]: 0; Pigweed plant response rating [4, 12]: 100; Plant response rating, Pigweed [4, 14]: 100; Foxtail, Giant plant response rating [5, 12]: 40; Plant response rating, Foxtail, Giant [5, 14]: 100; Barnyardgrass plant response rating [6, 12]: 30; Plant response rating, Barnyardgrass [6, 14]: 60; Morningglory plant response rating [7, 12]: 40; Plant response rating, Morningglory [7, 14]: 40
Cc1nn(-c2ccccc2Cl)nc1C(=O)c1cccc(C(F)(F)F)c1 [Compound 5] | 0 | 0 | 0 | 0 | 0 | 0 | 0 | 0 | 0 | 10 | 0 | 0 | 0 | 0 | 0 | 0 | 0 | 0 | 0 | 0 | Crabgrass, Large plant response rating [1, 12]: 0; Plant response rating, Crabgrass, Large [1, 14]: 0; Wheat plant response rating [2, 12]: 0; Plant response rating, Wheat [2, 14]: 0; Corn plant response rating (corn (Zea mays); [12]): 0; Plant response rating, Corn (corn (Zea mays); [14]): 0; Velvetleaf plant response rating [3, 12]: 0; Plant response rating, Velvetleaf [3, 14]: 0; Pigweed plant response rating [4, 12]: 30; Plant response rating, Pigweed [4, 14]: 0; Foxtail, Giant plant response rating [5, 12]: 0; Plant response rating, Foxtail, Giant [5, 14]: 0; Barnyardgrass plant response rating [6, 12]: 0; Plant response rating, Barnyardgrass [6, 14]: 0; Morningglory plant response rating [7, 12]: 0; Plant response rating, Morningglory [7, 14]: 0
CSc1ccccc1-n1nc(C)c(C(=O)c2cccc(C(F)(F)F)c2)n1 [Compound 6] | 0 | 0 | 0 | 0 | 0 | 0 | 0 | 0 | 0 | 0 | 0 | 0 | 0 | 0 | 0 | 0 | 0 | 0 | 0 | 0 | Crabgrass, Large plant response rating [1, 12]: 20; Plant response rating, Crabgrass, Large [1, 14]: 0; Wheat plant response rating [2, 12]: 0; Plant response rating, Wheat [2, 14]: 0; Corn plant response rating (corn (Zea mays); [12]): 0; Plant response rating, Corn (corn (Zea mays); [14]): 0; Velvetleaf plant response rating [3, 12]: 0; Plant response rating, Velvetleaf [3, 14]: 0; Pigweed plant response rating [4, 12]: 30; Plant response rating, Pigweed [4, 14]: 0; Foxtail, Giant plant response rating [5, 12]: 10; Plant response rating, Foxtail, Giant [5, 14]: 0; Barnyardgrass plant response rating [6, 12]: 0; Plant response rating, Barnyardgrass [6, 14]: 0; Morningglory plant response rating [7, 12]: 0; Plant response rating, Morningglory [7, 14]: 0
COc1nn(-c2ccc(F)cc2)nc1Oc1ccnc(C(F)(F)F)c1 [Compound 34] | 20 | 50 | 35 | 0 | 0 | 10 | 0 | 10 | 0 | 80 | 10 | 20 | 30 | 10 | 0 | 30 | 0 | 75 | 90 | 65 | Crabgrass, Large plant response rating [1, 15]: 10; Plant response rating, Crabgrass, Large [1, 16]: 0; Wheat plant response rating [2, 15]: 0; Plant response rating, Wheat [2, 16]: 0; Corn plant response rating (corn (Zea mays); [15]): 10; Plant response rating, Corn (corn (Zea mays); [16]): 0; Velvetleaf plant response rating [3, 15]: 0; Plant response rating, Velvetleaf [3, 16]: 0; Pigweed plant response rating [4, 15]: 20; Plant response rating, Pigweed [4, 16]: 0; Foxtail, Giant plant response rating [5, 15]: 10; Plant response rating, Foxtail, Giant [5, 16]: 0; Barnyardgrass plant response rating [6, 15]: 0; Plant response rating, Barnyardgrass [6, 16]: 0; Morningglory plant response rating [7, 15]: 20; Plant response rating, Morningglory [7, 16]: 0
